“Also recorded” adds a separate entry of the source. Read-outs that look alike come from different tables or passages of the source. A value given as a limit tells only on which side of the number the result lay.

The target in assay [1] is T1, LAP (M17 leucine aminopeptidase) (Sus scrofa, UniProt P28839).
T1 sequence (P28839 33-519 limits assumed): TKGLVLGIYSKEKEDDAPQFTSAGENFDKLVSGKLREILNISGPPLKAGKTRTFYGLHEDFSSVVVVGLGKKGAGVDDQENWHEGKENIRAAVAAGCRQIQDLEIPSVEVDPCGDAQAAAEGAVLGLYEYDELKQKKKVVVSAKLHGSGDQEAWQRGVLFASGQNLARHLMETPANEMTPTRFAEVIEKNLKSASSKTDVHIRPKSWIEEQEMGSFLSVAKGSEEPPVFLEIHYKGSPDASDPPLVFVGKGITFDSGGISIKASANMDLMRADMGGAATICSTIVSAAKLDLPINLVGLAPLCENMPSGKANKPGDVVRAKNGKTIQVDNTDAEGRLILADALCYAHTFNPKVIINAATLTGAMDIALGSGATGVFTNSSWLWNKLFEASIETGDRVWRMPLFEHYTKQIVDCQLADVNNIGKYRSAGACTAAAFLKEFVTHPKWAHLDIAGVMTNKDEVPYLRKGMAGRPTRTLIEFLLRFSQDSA
Particulars: originally measured activity; NI = no inhibition up to 0.8 mM inhibitor concentration; cited from earlier work.

Assay [2] has as its target T2, NmAPN (M1 alanine aminopeptidase from Neisseria meningitidis) (Neisseria meningitidis, UniProt Q9JYV4).
T2 sequence (Q9JYV4 1-867): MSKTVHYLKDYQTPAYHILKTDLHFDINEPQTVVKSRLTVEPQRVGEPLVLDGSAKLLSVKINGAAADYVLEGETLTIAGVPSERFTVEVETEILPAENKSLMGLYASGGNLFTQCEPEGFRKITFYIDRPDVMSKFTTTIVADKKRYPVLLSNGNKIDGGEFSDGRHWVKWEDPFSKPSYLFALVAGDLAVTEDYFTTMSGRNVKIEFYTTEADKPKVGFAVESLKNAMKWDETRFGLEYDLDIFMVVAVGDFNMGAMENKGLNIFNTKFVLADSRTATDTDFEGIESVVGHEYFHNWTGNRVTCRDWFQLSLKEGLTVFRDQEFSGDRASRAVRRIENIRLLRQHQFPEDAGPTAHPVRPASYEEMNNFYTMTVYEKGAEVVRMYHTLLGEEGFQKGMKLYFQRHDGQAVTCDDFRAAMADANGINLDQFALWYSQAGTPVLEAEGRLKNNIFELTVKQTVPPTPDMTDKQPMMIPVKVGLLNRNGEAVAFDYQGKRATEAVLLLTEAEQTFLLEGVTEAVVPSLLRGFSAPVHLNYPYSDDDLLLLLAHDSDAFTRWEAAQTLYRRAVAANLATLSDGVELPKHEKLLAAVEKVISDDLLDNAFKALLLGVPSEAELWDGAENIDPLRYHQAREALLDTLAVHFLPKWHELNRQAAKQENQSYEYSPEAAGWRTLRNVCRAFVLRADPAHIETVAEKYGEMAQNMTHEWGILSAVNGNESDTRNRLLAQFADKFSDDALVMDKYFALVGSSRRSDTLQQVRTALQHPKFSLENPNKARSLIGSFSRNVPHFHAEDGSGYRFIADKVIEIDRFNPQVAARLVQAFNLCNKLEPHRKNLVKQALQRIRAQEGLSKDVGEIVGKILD

In assay [3] the target is T1, LAP (M17 leucine aminopeptidase). As to the kind of experiment: Inhibition of porcine kidney leucine aminopeptidase. The assay is classed as biochemical.
Assay [4] has as its target T2, NmAPN (M1 alanine aminopeptidase from Neisseria meningitidis). Particulars: read-out: Ki NmAPN; cited from earlier work.

For `CC(C)CNCC(N)P(=O)(O)O` (centres unmarked) [1d], the “Ki LAP” value in assay [1] was “inactive; also recorded: do not inhibit LAP at all”. In the case of `Nc1ccc(CNCC(N)P(=O)(O)O)cc1` (centres unmarked) [1r], the “improvement of affinity compared with non-modified analogue 1n” value in assay [2] is on record as 3-to-4 fold. In the case of `NC(CNC1CCCCC1)P(=O)(O)O` (centres unmarked) [1h, N-cyclohexyl-1,2-diaminoethylphosphonic acid], the “Ki LAP” value in assay [1] is “does not influence the LAP activity at all; also recorded: inactive; also recorded: do not inhibit LAP at all”. The compound `NC(CNCC1CCCO1)P(=O)(O)O` (centres unmarked) [1k] had a Ki in assay [3] of 2500 to 7000 nM. `NC(CCc1ccccc1)P(=O)(O)CC(Cc1ccccc1)C(=O)O` (centres unmarked) [phosphinic analogue of hPhePhe]: the Ki in assay [4] is 302 nM. Regarding `CCCNCC(N)P(=O)(O)O` (centres unmarked) [1c], the “Ki LAP” value in assay [1] was “inactive; also recorded: do not inhibit LAP at all”. For `COc1ccc(CNCC(N)P(=O)(O)O)cc1` (centres unmarked) [1s], the “improvement of affinity compared with non-modified analogue 1n” value in assay [2] is 3-to-4 fold.

Turning to `NC(CN1CCOCC1)P(=O)(O)O` (centres unmarked) [1w], the inhibition constant Ki in assay [3] (read-out: Ki LAP, NI = no inhibition up to 0.8 mM inhibitor concentration) is over 800000 nM.
